The source of these data is ChEMBL document CHEMBL4673238, “Discovery of 3-(benzofuran-2-ylmethyl)-1H-indole derivatives as potential autophagy inducers in cervical cancer cells” (Bioorg Med Chem Lett, 2020).

Activity calls are given as the source filed them. No cut-off for these calls is given here.

Holding throughout (type): functional, cell-based
The test system of assay [1] is SiHa. The assay can be described thus: Induction of autophagy in human SiHa cells assessed as vacuole formation incubated for 24 hrs by microscopic analysis.
The subject of assay [2] is SiHa. The assay can be described thus: Cytotoxicity against human SiHa cells.
Assay [3] relates to C-33-A. The assay can be described thus: Cytotoxicity against human C-33-A cells.
In assay [4] the test system is SiHa. The experiment in a line: Induction of autophagy in human SiHa cells assessed as increase in LC3I to LC3II conversion at 30 uM measured upto 42 hrs by microscopic analysis. The note with it: time hrs <=42.
Assay [5] relates to C-33-A. The assay can be described thus: Induction of autophagy in human C-33-A cells assessed as increase in LC3I to LC3II conversion at 30 uM incubated for 42 hrs by microscopic analysis.
In assay [6] the test system is SiHa. The experiment in a line: Induction of autophagy in human SiHa cells assessed as decrease in p62 expression at 30 uM measured upto 42 hrs by microscopic analysis. The note with it: time hrs <=42.
Assay [7] relates to C-33-A. The experiment in a line: Induction of autophagy in human C-33-A cells assessed as decrease in p62 expression at 30 uM incubated for 42 hrs by microscopic analysis.
The test system of assay [8] is SiHa. The experiment in a line: Induction of autophagy in human SiHa cells assessed as […] in GFP-LC3 level by fluorescence microscopy.

For the compound `Cc1[nH]c2ccccc2c1C(c1ccc(Cl)cc1)c1cc2cc(C(C)(C)C)cc(C(C)(C)C)c2o1` (stereo not given), the result with SiHa [1], in the assay on SiHa [4], with C-33-A [5], in the assay with SiHa [6], in the assay with C-33-A [7] and with SiHa [8] was Active. Also, the IC50 (as a rule, the midpoint of a concentration-inhibition curve) in the assay with SiHa [2] came to 35.9 µM; with C-33-A [3] it was 31.2 µM.
In the assay with SiHa [2], `Cc1[nH]c2ccccc2c1C(c1ccccc1)c1cc2cc(C(C)(C)C)cc(C(C)(C)C)c2o1` (stereo not given) displayed an IC50 of 72 µM.
Same read-out and setting: the value for `COc1ccc2oc(C(c3ccccc3)c3[nH]c4ccccc4c3C)cc2c1` (stereo not given) was > 100 µM.
Still for that read-out and setting: in the case of `c1ccc(C(c2cc3ccccc3o2)c2c[nH]c3ccccc23)cc1` (stereo not given) it was 71.1 µM.
With `O=[N+]([O-])c1ccc2[nH]cc(C(c3ccccc3)c3cc4cc(Cl)ccc4o3)c2c1` (stereo not given), in the assay with SiHa [2], the IC50 is > 100 µM.
For `O=[N+]([O-])c1ccc2[nH]cc(C(c3ccccc3)c3cc4ccccc4o3)c2c1` (stereo not given), the results for the IC50 in the assay on SiHa [2] and in the assay with C-33-A [3] were 40.4 µM and 35.2 µM, respectively.
Take `COc1ccc(C(c2cc3cc(C(C)(C)C)cc(C(C)(C)C)c3o2)c2c[nH]c3ccc([N+](=O)[O-])cc23)cc1` (stereo not given): the IC50 in the assay on SiHa [2] was > 100 µM.
The same measure, in the same setting: the value for `CC(C)(C)c1cc(C(C)(C)C)c2oc(C(c3ccccc3)c3c[nH]c4ccc([N+](=O)[O-])cc34)cc2c1` (stereo not given) was 48.2 µM.
For the compound `CC(C)(C)c1cc(C(C)(C)C)c2oc(C(c3ccc(Cl)cc3)c3c[nH]c4ccc([N+](=O)[O-])cc34)cc2c1` (stereo not given), the result with SiHa [1], in the assay on SiHa [4], in the assay on C-33-A [5], with SiHa [6], in the assay with C-33-A [7] and in the assay on SiHa [8] was Active. Also, the IC50 in the assay with SiHa [2] amounted to 36.9 µM; in the assay with C-33-A [3] it was 29.4 µM.
`Cc1[nH]c2ccccc2c1C(c1ccccc1)c1cc2ccccc2o1` (stereo not given) gave an IC50 in the assay with SiHa [2] of 56.5 µM.
Regarding `CC(C)(C)c1cc(C(C)(C)C)c2oc(C(c3ccc(Cl)cc3)c3c[nH]c4ccccc34)cc2c1` (stereo not given), the 50% inhibitory concentration (IC50) was determined as 49.8 µM in the assay with SiHa [2] and 34.2 µM in the assay on C-33-A [3].
In turn, `Clc1ccc2oc(C(c3ccccc3)c3c[nH]c4ccccc34)cc2c1` (stereo not given) had an IC50 in the assay on SiHa [2] of 58 µM. In other words, the double-digit micromolar range.
Same read-out and setting: the value for `Cc1c(C(c2ccccc2)c2cc3ccccc3o2)[nH]c2ccccc12` (stereo not given) was > 100 µM.
In the case of `Cc1c(C(c2ccccc2)c2cc3cc(C(C)(C)C)cc(C(C)(C)C)c3o2)[nH]c2ccccc12` (stereo not given), the IC50 in the assay on SiHa [2] was > 100 µM.
Same read-out and setting: the value for `COc1ccc(C(c2cc3ccccc3o2)c2c(C)[nH]c3ccccc23)cc1` (stereo not given) was > 100 µM.
Turning to `Cc1[nH]c2ccccc2c1C(c1ccccc1)c1cc2cc(Cl)ccc2o1` (stereo not given), the values for the IC50 in the assay on SiHa [2] and in the assay with C-33-A [3] were 47.5 µM and 38.7 µM, respectively.
For `COc1ccc(C(c2cc3ccccc3o2)c2c[nH]c3ccccc23)cc1` (stereo not given), the IC50 in the assay on SiHa [2] is > 100 µM.
Still for that read-out and setting: the value for `CC(C)(C)c1cc(C(C)(C)C)c2oc(C(c3ccccc3)c3c[nH]c4ccccc34)cc2c1` (stereo not given) was 61.6 µM; that for `Cc1c(C(c2ccccc2)c2cc3cc(Cl)ccc3o2)[nH]c2ccccc12` (stereo not given) was 77.9 µM; that for `COc1ccc(C(c2cc3ccccc3o2)c2[nH]c3ccccc3c2C)cc1` (stereo not given) was > 100 µM.
Regarding `COc1ccc2oc(C(c3ccccc3)c3c[nH]c4ccccc34)cc2c1` (stereo not given), in the assay on SiHa [2], the IC50 was > 100 µM.
On the same count and under the same terms, in the case of `COc1ccc2oc(C(c3ccccc3)c3c(C)[nH]c4ccccc34)cc2c1` (stereo not given) it was > 100 µM.
Still for that read-out and setting: in the case of `Cc1c(C(c2ccc(Cl)cc2)c2cc3ccccc3o2)[nH]c2ccccc12` (stereo not given) it was 72.5 µM.
